In patent publication US20060258726A1, “1,5-Disubstituted imidazolidin-2-one derivatives for use as ep4 receptor agonists in the treatment of eye and bone diseases” (priority 2002, published 2006):

Experiments:
intracellular cAMP = experiment: Effect of PGE2 on intracellular cAMP in osteoblastic cell lines; type: cell-based, rat
EP2 mRNA [1] = experiment: EP2 mRNA in bone tissue after systemic injection (Northern blot); type: in vivo, rat
Experimental: (§1) For mRNA localization experiments, 5-week old Sprague-Dawley rats (Charles River) are euthanized by CO2, their tibiae and calvariae are excised, cleaned of soft tissues and frozen immediately in liquid nitrogen. For EP4 regulation experiments, 6-week old rats are given a single injection of either vehicle (7% ethanol in sterile water) or an anabolic dose of PGE2 (Cayman Chemical, Ann Arbor, Mich., 3-6 mg/kg in the same vehicle) intraperitoneally. Animals are euthanized at several time points post-injection and their tibiae and calvariae, as well as samples from lung and kidney tissues are frozen in liquid nitrogen.
(§2) Total RNA is extracted from the tibial metaphysis or diaphysis and calvaria using a guanidinium isothiocyanate-phenol-chloroform method after pulverizing frozen bone samples by a tissue homogenizer. See P. Chomczynski et al., Single-step method of RNA isolation by acid guanlidium thiocyanate-phenol-chloroform extraction., Analyt Biochem, 162, 156-159 (1987), which is incorporated by reference herein in its entirety. RNA samples ([…]) are separated on 0.9% agarose/formaldehyde gels and transferred onto nylon membranes (Boehringer Mannheim, Germany). […]

EP4 mRNA [2] = experiment: Localization of EP4 mRNA expression in bone tissue by in situ hybridization; type: in vivo; details: single anabolic dose, rat tibia
Experimental: as §1
Frozen tibiae are sectioned coronally at […] thickness and sections are mounted on charged slides (Probe On Plus, Fisher Scientific, Springfield, N.J.) and are kept at −70° C. until hybridization. cRNA probes are labeled with ^35S-UTPgS (ICN, Costa Mesa, Calif.) using a Riboprobe II kit (Promega Madison, Wis.). Hybridization is performed overnight at 50° C. […]
In situ hybridization is used in order to localize cells expressing EP4 in bone. In control experiment (vehicle-injected) rats, low expression of EP4 is detected in bone marrow cells. […]

EP4 mRNA [3] = experiment: EP4 mRNA levels in bone-derived cell lines (Northern blot); type: cell-based, rat
Experimental: (§3) RP-1 periosteal cells are spontaneously immortalized from primary cultures of periosteal cells from tibae of 4-week old Sprague-Dawley rats and are cultured in DMEM (BRL, Gaithersburg, Md.) with 10% fetal bovine serum (JRH Biosciences, Lenexa, Kans.).
RCT-1 and RCT-3 are clonal cell lines immortalized by SV-40 large T antigen from cells released from fetal rat calvair by a cmbination collagenase/hyaluronidase digestion. RCT-1 cells, derived from cells released during the first 10 minutes of digestion (fraction I), are cultured in RPMI 1640 medium (BRL) with 10% fetal bovine serum and 0.4 mg/ml G418 (BRL). These cells differentiate and express osteoblastic features upon retinoic acid treatment. RCT-3 cells, immortalized from osteoblast-enriched fraction III cells, are cultured in F-12 medium (BRL) with 5% Fetal bovine serum and 0.4 mg/ml G418. TRAB-11 cells are also immortalized by SV40 large T antigen from adult rat tibia and are cultured in RPML 1640 medium with 10% FBS and 0.4 mg/ml G418. ROS 17/2.8 rat osteosarcoma cells are cultured in F-12 containing 5% FBS. Osteoblast-enriched (fraction E) primary fetal rat calvaria cells are obtained by collagenase/hyaluronidase digestion of calvariae of 19 day-old rat fetuses. See Rodan et al., Growth stimulation of rat calvaria osteoblastic cells by acidic FGF, Endocrinology, 121, 1919-1923 (1987), which is incorporated by reference herein in its entirety. Cells are released during 30-50 minutes digestion (fraction E) and are cultured in F-12 medium containing 5% […].
as §2

EP2 mRNA [4] = experiment: EP2 mRNA in RP-1 periosteal cells (Northern blot); type: cell-based, rat; details: RP-1 cells
Experimental: as §3
(§4) Total RNA is extracted from the tibial metaphysis or diaphysis and calvaria using a guanidinium isothiocyanate-phenol-chloroform method after pulverizing frozen bone samples by a tissue homogenizer. See P. Chomczynski et al., Single-step method of RNA isolation by acid guanlidium thiocyanate-phenol-chloroform extraction., Analyt Biochem, 162, 156-159 (1987), which is incorporated by reference herein in its entirety. RNA samples ([…]) are separated on 0.9% agarose/formaldehyde gels and transferred onto nylon membranes (Boehringer Mannheim, Germany). Membranes are prehybridized in Hybrisol I (Oncor, Gaithersburg, Md.) and 0.5 mg/ml sonicated salmon sperm DNA (Boehringer) at 42° C. for 3 hours and are hybridized at 42° C. with rat EP2 and mouse EP4 cDNA probes labeled with [^32P]-dCTP (Amersham, Buckinghamshire, UK) by random priming using the rediprime kit (Amersham). After hybridization, membranes are washed 4 times in 2×SSC+0.1% SDS at room temperature for a total of 1 hour and once with 0.2×SSC+0.1% SDS at 55° C. for 1 hour and then exposed to Kodak XAR 2 film at −70° C. using intensifying screens. […]

EP4 mRNA [5] = experiment: EP4 mRNA levels in bone tissue after systemic injection (Northern blot); type: in vivo, rat; details: tibial diaphysis, 3-6 mg/Kg systemic
Excerpt: For mRNA localization experiments, 5-week old Sprague-Dawley rats (Charles River) are euthanized by CO2, their tibiae and calvariae are excised, cleaned of soft tissues and frozen immediately in liquid nitrogen. […] Animals are euthanized at several time points post-injection and their tibiae and calvariae, as well as samples from lung and kidney tissues are frozen in liquid nitrogen.
as §4, with “(Amersham).” for “(Amersham). After hybridization, membranes are washed 4 times in 2×SSC+0.1% SDS at room temperature for a total of 1 hour and once with 0.2×SSC+0.1% SDS at 55° C. for 1 hour and then exposed to Kodak XAR 2 film at −70° C. using intensifying screens.”

CCCCC[C@H](O)/C=C/[C@H]1[C@H](O)CC(=O)[C@@H]1C/C=C\CCCC(=O)O [PGE2]
effect on intracellular cAMP (intracellular cAMP; RCT-3 cells): markedly induced | effect on intracellular cAMP (intracellular cAMP; ROS 17/2.8 rat osteosarcoma cells): no effect | effect on intracellular cAMP (intracellular cAMP; TRAB-11 cells): markedly induced | induction of EP2 mRNA (EP2 mRNA [1]): does not induce | expression of EP4 in bone marrow cells (EP4 mRNA [2]): increased | effect on EP4 mRNA levels (EP4 mRNA [3]; RCT-3 cells): no effect | effect on EP4 mRNA levels (EP4 mRNA [3]; RP-1 periosteal cells, 10^−6 M): rapidly increases | time of peak EP4 mRNA level after treatment (EP4 mRNA [3]; RP-1 periosteal cells, 10^−6 M): 2 h | EP2 mRNA expression before or after treatment (EP2 mRNA [4]): not expressed | time of peak EP4 mRNA level after injection (EP4 mRNA [5]): 2 h | effect on EP4 mRNA levels (EP4 mRNA [5]; five-week-old male rats): rapidly increased
